Source: patent US8198273B2, “Compounds and methods for kinase modulation, and indications therefor” (Plexxikon Inc., priority 2009, dated 2012)

Key:
c-Raf-1 = c-Raf-1 (Homo sapiens, UniProt P04049); assay: c-Raf-1 biochemical kinase inhibition (AlphaScreen, biotin-MEK1 substrate); settings: 100 μM ATP
Protocol: Compounds to be tested are diluted in dimethyl sulfoxide to a concentration of 0.1 mM. These are serially diluted 15 μL into 30 μL of dimethyl sulfoxide seven times in 96 well plates for a total of 8 dilution points, and for each dilution point 1 μL is added to a well of an assay plate. […] The reaction is started with addition of 10 μL of 200 μM ATP (i.e. final 100 μM ATP). […] The plates are incubated for 3 hours at room temperature and read on Envision reader (Perkin Elmer). […] The signal vs. compound concentration is used to determine the IC50.

CYP3A4(BQ) = CYP3A4(BQ) (Homo sapiens, UniProt P08684); assay: CYP3A4(BQ) inhibition (fluorescent substrate); assay type: in vitro ADME; settings: read-out: Cyp IC50 3A4(BQ)
Summary of the method: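 Compound, from a 100 mM DMSO stock and diluted 1:1 over 10 points in co-factor mix, was incubated at 37° C with enzyme and a known substrate. Decrease in fluorescent product against concentration gave the IC50.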

CYP3A4(BQ), sequence (P08684 whole entry): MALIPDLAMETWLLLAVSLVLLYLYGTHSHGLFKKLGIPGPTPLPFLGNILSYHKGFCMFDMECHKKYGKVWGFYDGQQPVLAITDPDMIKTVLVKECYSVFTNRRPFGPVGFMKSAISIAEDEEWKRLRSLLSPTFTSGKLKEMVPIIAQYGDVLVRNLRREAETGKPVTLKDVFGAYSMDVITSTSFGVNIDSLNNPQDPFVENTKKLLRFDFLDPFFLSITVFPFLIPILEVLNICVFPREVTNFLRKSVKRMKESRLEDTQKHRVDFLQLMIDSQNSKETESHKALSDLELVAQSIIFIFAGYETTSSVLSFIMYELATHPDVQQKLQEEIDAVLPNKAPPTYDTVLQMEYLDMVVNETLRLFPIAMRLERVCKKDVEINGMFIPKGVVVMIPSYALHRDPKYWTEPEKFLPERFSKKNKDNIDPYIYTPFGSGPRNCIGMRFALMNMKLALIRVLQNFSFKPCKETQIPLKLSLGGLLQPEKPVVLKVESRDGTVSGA
c-Raf-1, sequence (P04049 whole entry): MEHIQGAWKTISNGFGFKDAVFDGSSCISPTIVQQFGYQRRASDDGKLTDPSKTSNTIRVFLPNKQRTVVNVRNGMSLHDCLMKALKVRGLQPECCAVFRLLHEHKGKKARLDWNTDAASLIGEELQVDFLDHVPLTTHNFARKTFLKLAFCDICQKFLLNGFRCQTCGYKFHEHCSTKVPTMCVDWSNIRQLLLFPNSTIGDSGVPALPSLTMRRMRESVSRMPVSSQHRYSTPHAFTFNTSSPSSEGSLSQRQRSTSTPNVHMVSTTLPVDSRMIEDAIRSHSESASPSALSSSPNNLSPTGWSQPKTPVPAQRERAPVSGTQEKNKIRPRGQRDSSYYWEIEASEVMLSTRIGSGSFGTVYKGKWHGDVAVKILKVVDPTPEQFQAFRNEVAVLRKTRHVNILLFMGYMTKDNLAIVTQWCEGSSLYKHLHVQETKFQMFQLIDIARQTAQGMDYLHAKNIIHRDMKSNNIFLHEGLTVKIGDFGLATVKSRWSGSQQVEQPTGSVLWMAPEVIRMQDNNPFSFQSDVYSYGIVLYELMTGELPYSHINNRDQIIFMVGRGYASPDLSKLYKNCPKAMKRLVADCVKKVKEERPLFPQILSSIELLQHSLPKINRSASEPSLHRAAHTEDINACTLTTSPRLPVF

| Compound | IC50 (c-Raf-1) | IC50 (CYP3A4(BQ)) |
| --- | --- | --- |
| COc1ccnc2[nH]cc(C(=O)c3c(F)ccc(NS(=O)(=O)c4c(F)cccc4F)c3F)c12 [P-2031, N-[2,4-Difluoro-3-(4-methoxy-1H-pyrrolo[2,3-b]pyridine-3-carbonyl)-phenyl]-2,6-difluoro-benzenesulfonamide] | < 100 nM | > 10000 nM |
| COc1ncc(-c2cnc3[nH]cc(C(=O)c4c(F)ccc(NS(=O)(=O)c5c(F)cccc5F)c4F)c3c2)cn1 [P-2043, N-{2,4-Difluoro-3-[5-(2-methoxy-pyrimidin-5-yl)-1H-pyrrolo[2,3-b]pyridine-3-carbonyl]-phenyl}-2,6-difluoro-benzenesulfonamide] | < 10 nM | > 10000 nM |
| COc1ncc(-c2cnc3[nH]cc(C(=O)c4c(F)ccc(NS(=O)(=O)c5cccc(F)c5)c4F)c3c2)cn1 [P-2045, N-{2,4-Difluoro-3-[5-(2-methoxy-pyrimidin-5-yl)-1H-pyrrolo[2,3-b]pyridine-3-carbonyl]-phenyl}-3-fluoro-benzenesulfonamide] | < 10 nM | > 10000 nM |
| N#Cc1cnc2[nH]cc(C(=O)c3cccc(NS(=O)(=O)c4ccccc4F)c3F)c2c1 [P-2051, N-[3-(5-Cyano-1H-pyrrolo[2,3-b]pyridine-3-carbonyl)-2-fluoro-phenyl]-2-fluoro-benzenesulfonamide] | < 100 nM | > 10000 nM |
| N#Cc1cnc2[nH]cc(C(=O)c3cccc(NS(=O)(=O)c4cc(F)ccc4F)c3F)c2c1 [P-2052, N-[3-(5-Cyano-1H-pyrrolo[2,3-b]pyridine-3-carbonyl)-2-fluoro-phenyl]-2,5-difluoro-benzenesulfonamide] | < 10 nM | > 10000 nM |
| N#Cc1cnc2[nH]cc(C(=O)c3cccc(NS(=O)(=O)c4cccc(F)c4)c3F)c2c1 [P-2053, N-[3-(5-Cyano-1H-pyrrolo[2,3-b]pyridine-3-carbonyl)-2-fluoro-phenyl]-3-fluoro-benzenesulfonamide] | < 10 nM | > 10000 nM |
| N#Cc1cnc2[nH]cc(C(=O)c3cccc(NS(=O)(=O)c4c(F)cccc4F)c3F)c2c1 [P-2054, N-[3-(5-Cyano-1H-pyrrolo[2,3-b]pyridine-3-carbonyl)-2-fluoro-phenyl]-2,6-difluoro-benzenesulfonamide] | < 100 nM | > 10000 nM |
| N#Cc1cnc2[nH]cc(C(=O)c3c(F)ccc(NS(=O)(=O)c4cccnc4)c3F)c2c1 [P-2072, Pyridine-3-sulfonic acid [3-(5-cyano-1H-pyrrolo[2,3-b]pyridine-3-carbonyl)-2,4-difluoro-phenyl]-amide] | < 10 nM | < 5000 nM |
| COc1ccnc2[nH]cc(C(=O)c3c(F)ccc(NS(=O)(=O)c4cccnc4)c3F)c12 [P-2073, Pyridine-3-sulfonic acid [2,4-difluoro-3-(4-methoxy-1H-pyrrolo[2,3-b]pyridine-3-carbonyl)-phenyl]-amide] | < 10 nM | < 5000 nM |
| CCCS(=O)(=O)Nc1ccc(F)c(C(=O)c2c[nH]c3ncc(-c4ccc(C(=O)NCC)nc4)cc23)c1F [P-2151, 5-{3-[2,6-Difluoro-3-(propane-1-sulfonylamino)-benzoyl]-1H-pyrrolo[2,3-b]pyridin-5-yl}-pyridine-2-carboxylic acid ethylamide] | < 10 nM | > 10000 nM |
| CCCS(=O)(=O)Nc1ccc(F)c(C(=O)c2c[nH]c3ncc(-c4ccc(Cl)nc4)cc23)c1F [P-2154, Propane-1-sulfonic acid {3-[5-(6-chloro-pyridin-3-yl)-1H-pyrrolo[2,3-b]pyridine-3-carbonyl]-2,4-difluoro-phenyl}-amide] | < 10 nM | > 10000 nM |
| CCCS(=O)(=O)Nc1ccc(F)c(C(=O)c2c[nH]c3ncc(-c4ccc(F)nc4)cc23)c1F [P-2155, Propane-1-sulfonic acid {2,4-difluoro-3-[5-(6-fluoro-pyridin-3-yl)-1H-pyrrolo[2,3-b]pyridine-3-carbonyl]-phenyl}-amide] | < 10 nM | > 10000 nM |
| CCCS(=O)(=O)Nc1ccc(F)c(C(=O)c2c[nH]c3ncc(-c4ccc(S(=O)(=O)N5CCOCC5)cc4)cc23)c1F [P-2166, Propane-1-sulfonic acid (2,4-difluoro-3-{5-[4-(morpholine-4-sulfonyl)-phenyl]-1H-pyrrolo[2,3-b]pyridine-3-carbonyl}-phenyl)-amide] | < 10 nM | > 10000 nM |
| CCCS(=O)(=O)Nc1ccc(F)c(C(=O)c2c[nH]c3ncc(-c4ccc(S(=O)(=O)NC5CC5)cc4)cc23)c1F [P-2168, N-Cyclopropyl-4-{3-[2,6-difluoro-3-(propane-1-sulfonylamino)-benzoyl]-1H-pyrrolo[2,3-b]pyridin-5-yl}-benzenesulfonamide] | < 10 nM |  |
| CCCS(=O)(=O)Nc1ccc(F)c(C(=O)c2c[nH]c3ncc(-c4cnc(N5CCCC5)nc4)cc23)c1F [P-2219, Propane-1-sulfonic acid {2,4-difluoro-3-[5-(2-pyrrolidin-1-yl-pyrimidin-5-yl)-1H-pyrrolo[2,3-b]pyridine-3-carbonyl]-phenyl}-amide] | < 100 nM |  |

Now from value to molecule:

| IC50 (c-Raf-1) | IC50 (CYP3A4(BQ)) | Compound |
| --- | --- | --- |
| < 10 nM | > 10000 nM | O=C(c1c(F)ccc(NS(=O)(=O)c2c(F)cccc2F)c1F)c1c[nH]c2ncc(Cl)cc12 [P-2003, N-[3-(5-Chloro-1H-pyrrolo[2,3-b]pyridine-3-carbonyl)-2,4-difluoro-phenyl]-2,6-difluoro-benzenesulfonamide] |
| < 10 nM | < 5000 nM | COc1ccnc2[nH]cc(C(=O)c3c(F)ccc(NS(=O)(=O)c4cccc(F)c4)c3F)c12 [P-2023, N-[2,4-Difluoro-3-(4-methoxy-1H-pyrrolo[2,3-b]pyridine-3-carbonyl)-phenyl]-3-fluoro-benzenesulfonamide] |
| < 10 nM | > 10000 nM | Cc1cnc2[nH]cc(C(=O)c3c(F)ccc(NS(=O)(=O)c4c(F)cccc4F)c3F)c2c1 [P-2024, N-[2,4-Difluoro-3-(5-methyl-1H-pyrrolo[2,3-b]pyridine-3-carbonyl)-phenyl]-2,6-difluoro-benzenesulfonamide] |
| < 10 nM | > 10000 nM | N#Cc1cnc2[nH]cc(C(=O)c3c(F)ccc(NS(=O)(=O)c4c(F)cccc4F)c3F)c2c1 [P-2029, N-[3-(5-Cyano-1H-pyrrolo[2,3-b]pyridine-3-carbonyl)-2,4-difluoro-phenyl]-2,6-difluoro-benzenesulfonamide] |
| < 10 nM | > 10000 nM | O=C(c1c(F)ccc(NS(=O)(=O)c2c(F)cccc2F)c1F)c1c[nH]c2nccc(Cl)c12 [P-2033, N-[3-(4-Chloro-1H-pyrrolo[2,3-b]pyridine-3-carbonyl)-2,4-difluoro-phenyl]-2,6-difluoro-benzenesulfonamide] |
| < 10 nM | > 10000 nM | COc1ncc(-c2cnc3[nH]cc(C(=O)c4c(F)ccc(NS(=O)(=O)c5ccccc5F)c4F)c3c2)cn1 [P-2041, N-{2,4-Difluoro-3-[5-(2-methoxy-pyrimidin-5-yl)-1H-pyrrolo[2,3-b]pyridine-3-carbonyl]-phenyl}-2-fluoro-benzenesulfonamide] |
| < 10 nM | > 10000 nM | COc1ncc(-c2cnc3[nH]cc(C(=O)c4c(F)ccc(NS(=O)(=O)c5cc(F)ccc5F)c4F)c3c2)cn1 [P-2042, N-{2,4-Difluoro-3-[5-(2-methoxy-pyrimidin-5-yl)-1H-pyrrolo[2,3-b]pyridine-3-carbonyl]-phenyl}-2,5-difluoro-benzenesulfonamide] |
